Assay results as given in paper PMC6226472, “Cardol triene inhibits dengue infectivity by targeting kl loops and preventing envelope fusion” (Scientific Reports, 2018).

Assays:
[1] = system: BHK-21/DENV2 replicon cells; assay: Replicon inhibition study, RT-qPCR of DENV2 NS1; format: cell-based, Dengue virus; conditions: 72 h
Protocol: We analyzed the replication inhibition using BHK-21/DENV2 replicon cells stably expressed the non-structural proteins. Cardol triene at 10 µM and 20 µM were added to the replicon cells for 72 h and the replication inhibition was accessed by RT-qPCR of DENV2 NS1. Ribavirin, a known inhibitor of flaviviral replication, was used as a positive inhibition control. […] Replicon cell viability under cardol triene treatment was also analyzed using an MTS assay. […] Therefore, we concluded that cardol triene inhibited DENV RNA replicon replication, potentially in dose-dependent manner.
BHK-21 (5 × 10^4) cells expressing DENV-2 replicon (BHK-21/DENV2)[44] were seeded as previously described. Cardol triene at 10 µM and 20 µM, DMSO, and ribavirin (TargetMol, USA) were added to the replicon cells and incubated at 37 °C for 3 days. Cells lysates were collected and viral RNA was quantified by RT-qPCR as previously described. Data were reported as percent inhibition compared with ribavirin. Three biological replicates were performed and results were means and SEM of all replicates.

[2] = system: DENV1 (16007); assay: Efficacy (EC50) in infected Vero cells; format: cell-based; conditions: Dengue virus
[3] = system: ZIKV (sv0010/15); assay: Efficacy (EC50) in infected Vero cells; format: cell-based, Zika virus
[4] = system: DENV2; assay: Attachment inhibition study; format: cell-based, Dengue virus
Protocol: Since dengue envelope protein was the key factor to receptor-binding, endocytosis, and fusion, we asked the question whether the compound would mainly neutralize the virion, inhibit the receptor binding, or inhibit endosomal fusion. Cardol triene at 10 µM was then co-incubated with DENV2 before, during, and after infection to Vero cells (Fig. 6A). […] Therefore, the major target was most likely at a pH-dependent endosomal fusion. […] However, the major post-infection inhibition required further investigations.
Vero (5 × 10^4) cells were seeded into 24-well plates as previously described. DENV2 (M.O.I. of 1) was diluted in ice-cold MEM with 1% fetal bovine serum[42] and was allowed to adsorb on the cells for 1 h with continuous rocking. Cardol triene (10 µM) was prepared in DMSO and was mixed with DENV2 (M.O.I. of 1) before adsorption for 1 h (pre-attachment). Cardol triene (10 µM) was also mixed with DENV2 (M.O.I. of 1) and immediately applied to the cells (co-attachment). Last, cardol triene was added to the cells after 1 h DENV2 adsorption (post-attachment). The experiments were incubated for 2 days at 37 °C. Intracellular viral RNA was determined from cell lysate using RT-qPCR and infectious virion was determined using plaque titration of the supernatant. DMSO was added to the experiment as a no-inhibition control. Means and standard error of the means (SEM) of three independent experiments were noted.

[5] = Cytotoxic concentration (CC50); format: cell-based; conditions: human
Protocol: Next, the compound mixture were further purified and synthesized into saturated (C15:0), monoene (C15:1), diene (C15:2), and triene (C15:3) as described in materials and methods. Toxicities were analyzed and results were calculated to percent viability and CC50 were analyzed using non-linear regression curve (Table 1). […] Cardanol triene was insoluble in DMSO, therefore the compound was excluded from this study. It could be inferred that the polyunsaturated hydrocarbon may involve in stabilizing the cell membrane. […] Moreover, we further explored the CC50 of cardol triene in other cell lines to verify its protective effect. Three human-derived cell lines (THP-1, HEK-293, and HepG2) were used to co-incubate with cardol triene and cardol mixture (73% diene and 27% triene).
Cytotoxic concentrations (CC50) were also studied using Vero cells. Briefly, the 10^4 cells were seeded into each well of 96-well plates. After an overnight incubation, phenolic lipids were serially diluted in DMSO to the final concentrations as follows; 25, 50, 100, 200, 300, 400, and 500 µM. Each concentration was performed in quadruplicates. DMSO at 1% was used as a mock treatment referring to 100% cell viability. Cells were incubated for 48 h before cell viability was accessed using CellTiler 96® Aqueous One Solution Cell Proliferation Assay kit (Promega, Wisconsin, USA). Non-linear regression analysis was used to determine cytotoxic concentrations (CC50) of each experiment. Results were derived from three independent experiments and reported as means and standard error of the means (SEM).

## C=CC/C=C/C/C=C/CCCCCCCc1cc(O)cc(O)c1 [Cardol triene, 5-[8(Z), 11(Z), 14-pentadecatrienyl]resorcinol]
[1]; 10 µM
  DENV2 RNA inhibition: 76.60 ± 7.59%
[1]; 20 µM
  DENV2 RNA inhibition: 89.44 ± 4.02%
[2]
  EC50: 5.35 ± 1.16 µM
[3]
  Zika virus inhibition: did not inhibit
[4]; 10 µM, post-infection, RT-qPCR
  inhibition of intracellular RNA: 87.00 ± 6.43%
[4]; 10 µM, pre-incubation and co-infection
  inhibition of infectious virions: moderate inhibition
[4]; Dengue virus, DENV2, post-infection, plaque titration, read-out: inhibition of infectious virion
  inhibition at 10 µM: 91.7 ± 4.53%
[5]; THP-1 cells
  CC50: 148 ± 3.78 µM
[5]; HEK-293 cells
  CC50: 92.8 ± 3.93 µM
[5]; HepG2 cells
  CC50: 140 ± 8.44 µM
